{"source": "ChEMBL document CHEMBL5352470", "about": "“RS6077 induces mitotic arrest and selectively activates cell death in human cancer cell lines and in a lymphoma tumor in vivo” (Eur J Med Chem, 2023)", "key": {"TERT-RPE1 [1]": {"tested_on": "TERT-RPE1", "test": "Induction of cell cycle arrest in human TERT-RPE1 cells assessed as accumulation of cells at G1 phase at 100 nM incubated for 72 hrs by annexin V-FITC and PI staining based flow cytometry analysis", "assay_type": "functional"}, "TERT-RPE1 [2]": {"tested_on": "TERT-RPE1", "test": "Induction of cell cycle arrest in human TERT-RPE1 cells assessed as accumulation of cells at S phase at 1000 nM incubated for 72 hrs by annexin V-FITC and PI staining based flow cytometry analysis", "assay_type": "functional"}, "AHH-1 [3]": {"tested_on": "AHH-1", "test": "Induction of cell cycle arrest in human AHH-1 cells assessed as accumulation of cells at S phase at 1000 nM incubated for 72 hrs by annexin V-FITC and PI staining based flow cytometry analysis", "assay_type": "functional"}, "U2932": {"tested_on": "U2932", "test": "Antiproliferative activity against human U2932 cells assessed as inhibition of cell growth measured for 72 hrs by MTT assay", "assay_type": "functional, cell-based", "conditions": "U2932, 72 h"}, "HeLa [4]": {"tested_on": "HeLa", "test": "Antiproliferative activity against human HeLa cells assessed as inhibition of cell growth measured for 48 hrs by MTT assay", "assay_type": "functional, cell-based"}, "TERT-RPE1 [5]": {"tested_on": "TERT-RPE1", "test": "Induction of cell cycle arrest in human TERT-RPE1 cells assessed as accumulation of cells at S phase at 2500 nM incubated for 72 hrs by annexin V-FITC and PI staining based flow cytometry analysis", "assay_type": "functional"}, "HeLa [6]": {"tested_on": "HeLa", "test": "Induction of cell cycle arrest in human HeLa cells assessed as accumulation of cells at S phase at 2500 nM incubated for 72 hrs by annexin V-FITC and PI staining based flow cytometry analysis", "assay_type": "functional"}, "Farage": {"tested_on": "Farage", "test": "Antiproliferative activity against human Farage cells assessed as inhibition of cell growth measured for 72 hrs by MTT assay", "assay_type": "functional, cell-based"}, "[7]": {"test": "Toxicity in human T cells derived from human PBMC assessed as viable cells at 2.5 uM measured for 72 hrs by annexin V-FITC and PI staining based flow cytometry analysis (reference value: 66.5 to 77.5 %)", "assay_type": "cell-based, T-cell", "conditions": "read-out: Activity"}, "TMD8 [8]": {"tested_on": "TMD8", "test": "Antitumor activity against human TMD8 cells xenografted in NOD/SCID mouse assessed as reduction in tumor volume at 100 mg/kg, po administered for 5 days and measured on day 6", "assay_type": "functional", "conditions": "time 6 day"}, "TERT-RPE1 [9]": {"tested_on": "TERT-RPE1", "test": "Induction of cell cycle arrest in human RPE-1 cells assessed as accumulation of cells at G2 phase incubated for 72 hrs by annexin V-FITC and PI staining based flow cytometry analysis", "assay_type": "functional"}, "[10]": {"test": "Toxicity in human T cells derived from human PBMC assessed as early apoptotic cells at 0.1 uM measured for 48 hrs by annexin V-FITC and PI staining based flow cytometry analysis (reference value: 6.75 to 8.22 %)", "conditions": "t-cell"}, "HeLa [11]": {"tested_on": "HeLa", "test": "Induction of cell cycle arrest in human HeLa cells assessed as accumulation of cells at S phase at 100 nM incubated for 72 hrs by annexin V-FITC and PI staining based flow cytometry analysis", "assay_type": "functional"}, "AHH-1 [12]": {"tested_on": "AHH-1", "test": "Induction of apoptosis in human AHH-1 cells at 1000 to 2500 nM measured after 72 hrs by annexin V-FITC and PI staining based flow cytometry analysis", "assay_type": "functional", "conditions": "dose 1000-2500 nM"}, "HeLa [13]": {"tested_on": "HeLa", "test": "Induction of cell cycle arrest in human HeLa cells assessed as accumulation of cells at G1 phase at 1000 nM incubated for 72 hrs by annexin V-FITC and PI staining based flow cytometry analysis", "assay_type": "functional"}, "[14]": {"test": "Toxicity in human T cells derived from human PBMC assessed as early apoptotic cells at 0.1 uM measured for 72 hrs by annexin V-FITC and PI staining based flow cytometry analysis (reference value: 9.70 to […])", "conditions": "t-cell"}, "[15]": {"test": "Metabolic stability in mouse liver microsome assessed as half life measured upto 60 mins by LC-MS/MS analysis", "assay_type": "ADME", "conditions": "liver microsomes"}, "[16]": {"test": "Toxicity in human T cells derived from human PBMC assessed as necrotic cells at 1 uM measured for 72 hrs by annexin V-FITC and PI staining based flow cytometry analysis (reference value: 0.48 to 0.56 %)", "conditions": "t-cell"}, "TMD8 [17]": {"tested_on": "TMD8", "test": "Antiproliferative activity against human TMD8 cells assessed as inhibition of cell growth measured for 72 hrs by MTT assay", "assay_type": "functional, cell-based", "conditions": "TMD8, 72 h"}, "[18]": {"test": "Metabolic stability in human liver microsome assessed as intrinsic clearance measured upto 60 mins by LC-MS/MS analysis", "assay_type": "ADME", "conditions": "liver microsomes, read-out: CLH"}, "TERT-RPE1 [19]": {"tested_on": "TERT-RPE1", "test": "Induction of cell cycle arrest in human TERT-RPE1 cells assessed as accumulation of cells at G1 phase at 1000 nM incubated for 72 hrs by annexin V-FITC and PI staining based flow cytometry analysis", "assay_type": "functional"}, "AHH-1 [20]": {"tested_on": "AHH-1", "test": "Induction of cell cycle arrest in human AHH-1 cells assessed as accumulation of cells at G1 phase at 1000 nM incubated for 72 hrs by annexin V-FITC and PI staining based flow cytometry analysis", "assay_type": "functional"}, "AHH-1 [21]": {"tested_on": "AHH-1", "test": "Induction of cell cycle arrest in human AHH-1 cells assessed as accumulation of cells at G1 phase at 2500 nM incubated for 72 hrs by annexin V-FITC and PI staining based flow cytometry analysis", "assay_type": "functional"}, "AHH-1 [22]": {"tested_on": "AHH-1", "test": "Induction of cell cycle arrest in human AHH-1 cells assessed as accumulation of cells at G2/M phase at 1000 nM incubated for 72 hrs by annexin V-FITC and PI staining based flow cytometry analysis", "assay_type": "functional"}, "[23]": {"test": "Toxicity in human T cells derived from human PBMC assessed as viable cells at 0.1 uM measured for 72 hrs by annexin V-FITC and PI staining based flow cytometry analysis (reference value: 66.5 to 77.5 %)", "assay_type": "cell-based, T-cell", "conditions": "read-out: Activity"}, "[24]": {"test": "Toxicity in human T cells derived from human PBMC assessed as late apoptotic cells at 1 uM measured for 72 hrs by annexin V-FITC and PI staining based flow cytometry analysis (reference value: 11.5 to 17.6%)", "conditions": "t-cell"}, "AHH-1 [25]": {"tested_on": "AHH-1", "test": "Induction of cell cycle arrest in human AHH-1 cells assessed as accumulation of cells at G2/M phase at 100 nM incubated for 72 hrs by annexin V-FITC and PI staining based flow cytometry analysis", "assay_type": "functional"}, "[26]": {"test": "Toxicity in human T cells derived from human PBMC assessed as viable cells at 1 uM measured for 48 hrs by annexin V-FITC and PI staining based flow cytometry analysis (reference value: 77.5 to 79.5 %)", "assay_type": "cell-based, T-cell", "conditions": "read-out: Activity"}, "TERT-RPE1 [27]": {"tested_on": "TERT-RPE1", "test": "Induction of cell cycle arrest in human TERT-RPE1 cells assessed as accumulation of cells at S phase at 100 nM incubated for 72 hrs by annexin V-FITC and PI staining based flow cytometry analysis", "assay_type": "functional"}, "[28]": {"test": "Toxicity in human T cells derived from human PBMC assessed as early apoptotic cells at 2.5 uM measured for 48 hrs by annexin V-FITC and PI staining based flow cytometry analysis (reference value: 6.75 to 8.22 %)", "conditions": "t-cell"}, "[29]": {"test": "Toxicity in NOD/SCID mouse assessed as reduction in body condition score at 100 mg/kg, po administered for 5 days", "assay_type": "organism-based", "conditions": "in vivo, 120 h, time 5 day"}, "HeLa [30]": {"tested_on": "HeLa", "test": "Induction of cell cycle arrest in human HeLa cells assessed as accumulation of cells at G2/M phase at 1000 nM incubated for 72 hrs by annexin V-FITC and PI staining based flow cytometry analysis", "assay_type": "functional"}, "Tubulin": {"molecular_target": "Tubulin", "test": "Inhibition of tubulin polymerization (unknown origin) incubated for 20 mins in presence of GTP by spectrophotometric analysis", "assay_type": "protein-complex assay, Homo sapiens"}, "AHH-1 [31]": {"tested_on": "AHH-1", "test": "Induction of cell cycle arrest in human AHH-1 cells assessed as accumulation of cells at G2/M phase at 2500 nM incubated for 72 hrs by annexin V-FITC and PI staining based flow cytometry analysis", "assay_type": "functional"}}, "note": "The source made the active and inactive calls. The calls are words filed in the database; no cut-off is given here.", "data": [{"smiles": "COc1cc(C(=O)c2ccn(-c3ncnc4[nH]ccc34)c2)cc(OC)c1OC", "values": [{"measurement": "Activity", "setting": "TERT-RPE1 [1]", "value": 13.9, "unit": "%"}, {"measurement": "Activity", "setting": "TERT-RPE1 [2]", "value": 3.4, "unit": "%"}, {"measurement": "Activity", "setting": "AHH-1 [3]", "value": 18.4, "unit": "%"}, {"measurement": "IC50", "setting": "U2932", "value": 0.021, "unit": "µM"}, {"measurement": "IC50", "setting": "HeLa [4]", "value": 0.0358, "unit": "µM"}, {"measurement": "Activity", "setting": "TERT-RPE1 [5]", "value": 7.3, "unit": "%"}, {"measurement": "Activity", "setting": "HeLa [6]", "value": 48.7, "unit": "%"}, {"measurement": "IC50", "setting": "Farage", "value": 0.0176, "unit": "µM"}, {"measurement": "viability at 72 h, 2.5 µM", "setting": "[7]", "value": 64.3, "unit": "%"}, {"measurement": "Activity", "setting": "TMD8 [8]", "value": 407, "unit": "mm3"}, {"measurement": "Activity", "setting": "TERT-RPE1 [9]", "value": "inactive"}, {"measurement": "Activity", "setting": "[10]", "value": 5.88, "unit": "%"}, {"measurement": "Activity", "setting": "HeLa [11]", "value": 43.2, "unit": "%"}, {"measurement": "Activity", "setting": "AHH-1 [12]", "value": 80, "unit": "%"}, {"measurement": "Activity", "setting": "HeLa [13]", "value": 22.2, "unit": "%"}, {"measurement": "Activity", "setting": "[14]", "value": 9.7, "unit": "%"}, {"measurement": "half-life", "setting": "[15]", "value": 14.7, "unit": "min"}, {"measurement": "Activity", "setting": "[16]", "value": 0.41, "unit": "%"}, {"measurement": "IC50", "setting": "TMD8 [17]", "value": 0.0216, "unit": "µM"}, {"measurement": "microsomal CLint", "setting": "[18]", "value": 28, "unit": "µL/min/mg"}, {"measurement": "Activity", "setting": "TERT-RPE1 [19]", "value": 13.3, "unit": "%"}, {"measurement": "Activity", "setting": "AHH-1 [20]", "value": 9.5, "unit": "%"}, {"measurement": "Activity", "setting": "AHH-1 [21]", "value": 9.8, "unit": "%"}, {"measurement": "Activity", "setting": "AHH-1 [22]", "value": 70.8, "unit": "%"}, {"measurement": "viability at 72 h, 0.1 µM", "setting": "[23]", "value": 68.1, "unit": "%"}, {"measurement": "Activity", "setting": "[24]", "value": 12, "unit": "%"}, {"measurement": "Activity", "setting": "AHH-1 [25]", "value": 32, "unit": "%"}, {"measurement": "viability at 48 h, 1 µM", "setting": "[26]", "value": 74.9, "unit": "%"}, {"measurement": "Activity", "setting": "TERT-RPE1 [27]", "value": 2.3, "unit": "%"}, {"measurement": "Activity", "setting": "[28]", "value": 7.06, "unit": "%"}, {"measurement": "Activity", "setting": "[29]", "value": "Non-Toxic"}, {"measurement": "Activity", "setting": "HeLa [30]", "value": 33.8, "unit": "%"}, {"measurement": "IC50", "setting": "Tubulin", "value": 0.28, "unit": "µM"}, {"measurement": "Activity", "setting": "AHH-1 [31]", "value": 69.7, "unit": "%"}]}]}
